Measurements: patent US9232804B2, “Compositions and methods for sterilizing bioscaffolds” (KNU University-Industry Cooperation Foundation, priority 2012, dated 2016)

Assays:
porcine liver scaffolds = experiment: Sterilization effect on scaffolds according to culture time (DMEM + 10% FBS, Columbia blood agar)
Protocol: First, the porcine liver scaffolds prepared in Example 1 were divided into two groups: an experimental group in which the scaffolds were immersed in the slightly acidic electrolyzed water prepared in Example 2 to be sterilized for […], 60 minutes, 90 minutes, and 120 minutes, respectively; and a control group in which the scaffolds were treated with PBS, peracetic acid (PAA) solution (Sigma-Aldrich, St Louis, Mo., USA), and 70% ethanol solution (Daejung Chemicals and Metals, Seoul, Korea), instead of the slightly acidic electrolyzed water. The slightly acidic electrolyzed water was changed every 15 minutes to be the best fit for sterilization of the porcine liver scaffolds, and the sterilized porcine liver scaffolds were washed with PBS once.
The porcine liver scaffolds of the experimental group and the control group treated by the method described in the above section 3-1 were incubated in Dulbecco's Modified Eagle's Medium (DMEM; Invitrogen, Carlsbad, Calif., USA) supplemented with 10% fetal bovine serum (FBS, Hyclone, Logan, Utah, USA) at 37° C. and on Columbia blood agar medium (Fluka Chemie GmbH) for 96 hours and then checked periodically for signs of infection. In the event of infection, the discoloration and turbidity of medium increases, and the growth of cell colonies is observed on blood agar medium.
In Table 2, (−) represents that no symptoms of infection were observed; (+) represents that symptoms of infection were observed; (x) represents that symptoms of infection were observed before observation time; native liver, decellularized liver, and PBS-treated liver were used as positive controls; and medium without scaffolds was used as the negative control.

porcine fibroblasts [1] = experiment: Ki-67 immunostaining of fibroblasts in conditioned medium; assay type: cell-based; details: conditioned medium from treated scaffolds
Protocol: Conditioned and control media were prepared by the method described in Example 6-1, and about 5000 porcine fibroblasts were cultured on gelatin-coated 4-well plates for 24 hours. Then, the medium was switched to conditioned or control medium. The medium was changed every 24 hours. The proliferation potential of the soluble factors eluted from the scaffolds was checked after incubation for 24 hour and 48 hours. Cells were immunostained using anti-Ki-67 antibody (Abcam, Cambridge, UK). Texas Red goat anti-rabbit IgG (Invitrogen) was used as a secondary antibody. Nuclei were counterstained using a mounting medium containing DAPI. The percentage of Ki-67 positive cells was calculated as the ratio of average positive Ki-67 cells relative to 250 DAPI-stained cells.

[2] = Glycosaminoglycan content, dimethyl methylene blue dye-binding assay (Blyscan kit); set-up: species or system porcine; details: for content of glycosaminoglycans, % of that in untreated and decellularized scaffolds: relative to untreated and decellularized scaffolds; for content of glycosaminoglycans, % of that in untreated scaffolds: relative to untreated scaffolds
Protocol: To evaluate the effects of the slightly acidic electrolyzed water of the present invention on the content of glycosaminoglycans, the content of glycosaminoglycans in decellularized liver (untreated scaffolds), scaffolds treated with PBS, and scaffolds treated with the slightly acidic electrolyzed water of the present invention were determined using a dimethyl methylene blue dye-binding assay kit (Blyscan kit; Biocolor Ltd) according to the manufacturer's instructions. First, 5 mg of lyophilized sample was homogenized and solubilized. A 100 μL aliquot from each sample lysate was added to 1 mL of dimethyl methylene blue solution and agitated on a shaker at 25° C. for 30 minutes. The resulting solutions were then centrifuged at 10,000×g for 10 minutes to collect the GAG dye complex, and the supernatants were discarded. The remaining pellet was suspended in 1 mL of the provided dissociation reagent, and the absorbance was measured at 655 nm. Chondroitin sulfate provided in the kit was used as a standard of glycosaminoglycans.

porcine skin fibroblasts = experiment: Cytotoxicity test (MTT) with conditioned medium from sterilized scaffolds; assay type: cell-based; details: conditioned medium from treated scaffolds
Protocol: Conditioned cell culture media were prepared from scaffolds treated with the slightly acidic electrolyzed water of the present invention. In brief, serum-free DMEM cell culture medium was incubated overnight with each SAEW-treated scaffold at a concentration of 0.2 g/ml media at 37° C. in a shaker at 70 rpm/min. Cell culture media without scaffolds were prepared by the same method as above to provide unconditioned controls. After incubation, the scaffolds were removed and the medium was filtered through a 0.4 μm filter to prepare culture medium containing soluble factors released from extracellular matrix.
The medium in which fibroblasts were incubated was aspirated, followed by the addition of conditioned or unconditioned culture medium containing 10% FBS and 1% penicillin-streptomycin (Gibco, Grand Island, N.Y., USA) to the well with attached fibroblasts, and the plate was incubated 37° C. in 5% CO2 atmosphere for 24 hours and 48 hours (the culture medium was changed every 24 hours).

porcine fibroblasts [3] = experiment: MTT cell attachment assay on sterilized scaffolds; details: incubated for 3 hours to attach, viable for 16 hours
Protocol: Then, a 100 μL aliquot of DMEM in which porcine fibroblasts were suspended was added to each scaffold disc such that a total of about 50,000 fibroblasts were seeded on the plates. Then, the plate was incubated at 37° C. in 5% CO2 atmosphere for 3 hours to allow the fibroblasts to attach to scaffold substrates. The scaffold substrates were carefully transferred to another well such that the cells attached to the scaffold would remain undisturbed. Then, the plate was incubated at 37° C. in 5% CO2 atmosphere for 12 hours. Then, 10 μL of MTT solution (3-[4,5-dimethylthiazol-2yl]-2,5-diphenyltetrazolium bromide; 5 mg/ml, Sigma Aldrich) dissolved in PBS was added to each well and incubated at 37° C. in 5% CO2 atmosphere for 5 hours. Then, the media were removed and 200 μL of dimethyl sulfoxide (DMSO) was added to each well to dissolve the formazan by pipetting. After incubation for 10 minutes, 100 μL of solutions from the respective substrate wells were pipetted into another 96-well plate. Finally, the absorbance of the samples was determined using a spectrophotometer with a test wavelength of 570 nm and a reference wavelength of 630 nm.

[4] = tested on: collagen in porcine liver scaffolds; experiment: Collagen content, Sircol collagen dye-binding assay; details: relative to native liver
Protocol: To evaluate the effects of the slightly acidic electrolyzed water of the present invention on the content of collagen, the total collagen levels in native liver, decellularized scaffolds (untreated), scaffolds treated with PBS, PAA, or ethanol, and scaffolds treated with the slightly acidic electrolyzed water of the present invention were determined using a Sircol collagen dye-binding assay kit (Biocolor Ltd.) according to the manufacturer's instructions.
In more detail, lyophilized samples of native porcine liver slices, scaffolds decellularized by the method of Example 1, porcine liver scaffolds treated with PAA, PBS, ethanol, and slightly acidic electrolyzed water, respectively, were prepared. Then, total acid pepsin-soluble collagen was obtained after incubation in 0.5 M acetic acid containing 0.1 mg/ml pepsin. A 100 μL aliquot of acid neutralizing reagent was added to the acid-pepsin extract. Then, the extract was centrifuged after an overnight incubation at 4° C. Then, 1 mL Sircol dye reagent was added to the pellet and incubated at 25° C. for 30 minutes. After centrifugation, the pellet was washed with acid-salt wash reagent and suspended in 1 mL of alkaline reagent. Then, the absorbance was measured at 540 nm.

[5] = tested on: DNA in porcine liver scaffolds; experiment: DNA content of treated scaffolds (removal of immunogenic antigens); details: relative to untreated scaffolds
Protocol: First, lyophilized samples of native porcine liver slices, scaffolds decellularized by the method of Example 1, porcine liver scaffolds treated with 0.1% peracetic acid solution (PAA; Sigma-Aldrich, St Louis, Mo., USA), PBS, 70% ethanol (Daejung Chemicals and Metals, Seoul, Korea), and slightly acidic electrolyzed water were prepared. Then, DNA was extracted from the lyophilized samples using the DNeasy Blood and Tissue Kit (Qiagen, Hilden, Germany).

Structure (SMILES) | symptoms of infection (porcine liver scaffolds; Columbia blood agar, 6 hour) | symptoms of infection (porcine liver scaffolds; Columbia blood agar, 24 hour) | symptoms of infection (porcine liver scaffolds; Columbia blood agar, 36 hour) | symptoms of infection (porcine liver scaffolds; Columbia blood agar, 48 hour) | symptoms of infection (porcine liver scaffolds; Columbia blood agar, 60 hour) | symptoms of infection (porcine liver scaffolds; DMEM + 10% FBS, 6 hour) | symptoms of infection (porcine liver scaffolds; DMEM + 10% FBS, 24 hour) | symptoms of infection (porcine liver scaffolds; DMEM + 10% FBS, 36 hour) | symptoms of infection (porcine liver scaffolds; DMEM + 10% FBS, 48 hour) | symptoms of infection (porcine liver scaffolds; DMEM + 10% FBS, 60 hour) | symptoms of infection (porcine liver scaffolds; DMEM + 10% FBS, 72 hour) | percentage of Ki-67 positive cells compared to the control group (porcine fibroblasts [1]) | content of glycosaminoglycans, % of that in untreated and decellularized scaffolds [2] [%] | content of glycosaminoglycans, % of that in untreated scaffolds [2] [%] | proliferation rate of fibroblasts compared to unconditioned medium (porcine skin fibroblasts; incubation for 24 hours) [%] | proliferation rate of fibroblasts compared to unconditioned medium (porcine skin fibroblasts; incubation for 48 hours) [%] | seeded fibroblasts attached to scaffolds and remaining viable (porcine fibroblasts [3]) [%] | other results
CCO [Ethanol, ethanol] | − | − | − | − | + | − | − | − | − | − | + | no significant difference | 64.16±1.92 | 49.1±1.47 | 109.22±5.58 | 113.95±6.67 | 64.86±3.48 | content of collagen, % of that in native liver [4]: 87.54±4.07%
CC(=O)OO [PAA, peracetic acid] | − | − | − | − | − | − | − | − | − | − | − | no significant difference | 56±1.04 | 43±0.80 | 119.18±5.6 | 127.43±6.68 | 71.50±1.95 | symptoms of infection (porcine liver scaffolds; Columbia blood agar, 72 hour): −; symptoms of infection (porcine liver scaffolds; Columbia blood agar, 96 hour): −; symptoms of infection (porcine liver scaffolds; DMEM + 10% FBS, 96 hour): −; efficiency for removing the DNA content [5]: 93.13±2.82%
